Data reported in the supplement of paper PMC11061612.

Assays:
Carboplatin = compound: C1CC(C1)(C(=O)[O-])C(=O)[O-].N.N.[Pt+2] [Carboplatin]; conditions: max 10 µM
Method in brief: (§1)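 Cancer cell lines were seeded into 1536-well plates in 7.5 μl medium (DMEM/F12 or RPMI, 10% FBS), held 24 hours at 37°C and 5% CO2, and dosed for 72 hours with final DMSO typically 0.2%. Luminescence from CellTiter-Glo 2.0, scaled between blank-well and DMSO-well means, served as viability. The single-agent IC50 was obtained from dose-response fits with a non-linear mixed effects model, each fit being a two-parameter logistic curve.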

AZD5363 = compound: C1CN(CCC1(C(=O)N[C@@H](CCO)C2=CC=C(C=C2)Cl)N)C3=NC=NC4=C3C=CN4 [AZD5363]; conditions: max 10 µM
Method in brief: as §1

AZD1775 = compound: C=CCn1c(=O)c2cnc(Nc3ccc(N4CCN(C)CC4)cc3)nc2n1-c1cccc(C(C)(C)O)n1 [AZD1775]; conditions: max 3 µM
Method in brief: as §1

Trametinib = compound: CC(=O)Nc1cccc(-n2c(=O)n(C3CC3)c(=O)c3c(Nc4ccc(I)cc4F)n(C)c(=O)c(C)c32)c1 [Trametinib]; conditions: max 1 µM
Method in brief: as §1

Paclitaxel = compound: CC(=O)O[C@H]1C(=O)[C@@]2(C)[C@H]([C@H](OC(=O)c3ccccc3)[C@]3(O)C[C@H](OC(=O)[C@H](O)[C@@H](NC(=O)c4ccccc4)c4ccccc4)C(C)=C1C3(C)C)[C@]1(OC(C)=O)CO[C@@H]1C[C@@H]2O [Paclitaxel]; conditions: max 3 µM
Method in brief: as §1

Palbociclib = compound: CC(=O)c1c(C)c2cnc(Nc3ccc(N4CCNCC4)cn3)nc2n(C2CCCC2)c1=O [Palbociclib]; conditions: max 10 µM
Method in brief: as §1

AZD1390 = compound: CC(C)n1c(=O)n(C)c2cnc3cc(F)c(-c4ccc(OCCCN5CCCCC5)nc4)cc3c21 [AZD1390]; conditions: max 0.3 µM
Method in brief: as §1

Venetoclax = compound: CC1(C)CCC(CN2CCN(c3ccc(C(=O)NS(=O)(=O)c4ccc(NCC5CCOCC5)c([N+](=O)[O-])c4)c(Oc4cnc5[nH]ccc5c4)c3)CC2)=C(c2ccc(Cl)cc2)C1 [Venetoclax]; conditions: max 1 µM
Method in brief: as §1

Dasatinib = compound: CC1=C(C(=CC=C1)Cl)NC(=O)C2=CN=C(S2)NC3=CC(=NC(=N3)C)N4CCN(CC4)CCO [Dasatinib]; conditions: max 2 µM
Method in brief: as §1

SG3199 = compound: CC1=CN2[C@@H](C1)C=NC3=CC(=C(C=C3C2=O)OC)OCCCCCOC4=C(C=C5C(=C4)N=C[C@@H]6CC(=CN6C5=O)C)OC [SG3199]; conditions: max 0.001 µM
Method in brief: as §1

AZD2811 = compound: CCN(CCO)CCCOc1ccc2c(Nc3cc(CC(=O)Nc4cccc(F)c4)[nH]n3)ncnc2c1 [AZD2811]; conditions: max 1 µM
Method in brief: as §1

SN-38 = compound: CCc1c2c(nc3ccc(O)cc13)-c1cc3c(c(=O)n1C2)COC(=O)[C@]3(O)CC [SN-38]; conditions: max 0.3 µM
Method in brief: as §1

AZD0156 = compound: CN(C)CCCOc1ccc(-c2ccc3ncc4c(c3c2)n(C2CCOCC2)c(=O)n4C)cn1 [AZD0156]; conditions: max 3 µM
Method in brief: as §1

AZD4320 = compound: CN(CC[C@H](CSC1=CC=CC=C1)NC2=C(C=C(C=C2)S(=O)(=O)NC(=O)C3=CC=C(C=C3)N4CCC(CC4)[C@H](C5=CC=CC=C5C6=CC=C(C=C6)Cl)O)S(=O)(=O)C(F)(F)F)CCO [AZD4320]; conditions: max 1 µM
Method in brief: as §1

Alisertib = compound: COc1cc(Nc2ncc3c(n2)-c2ccc(Cl)cc2C(c2c(F)cccc2OC)=NC3)ccc1C(=O)O [Alisertib]; conditions: max 10 µM
Method in brief: as §1

Etoposide = compound: COc1cc([C@@H]2c3cc4c(cc3[C@@H](O[C@@H]3O[C@@H]5CO[C@@H](C)O[C@H]5[C@H](O)[C@H]3O)[C@H]3COC(=O)[C@H]23)OCO4)cc(OC)c1O [Etoposide]; conditions: max 10 µM
Method in brief: as §1

Gefitinib = compound: COc1cc2ncnc(Nc3ccc(F)c(Cl)c3)c2cc1OCCCN1CCOCC1 [Gefitinib]; conditions: max 10 µM
Method in brief: as §1

Prexasertib = compound: COc1cccc(OCCCN)c1-c1cc(Nc2cnc(C#N)cn2)n[nH]1 [Prexasertib]; conditions: max 1 µM
Method in brief: as §1

Doxorubicin = compound: COc1cccc2c1C(=O)c1c(O)c3c(c(O)c1C2=O)C[C@@](O)(C(=O)CO)C[C@@H]3O[C@H]1C[C@H](N)[C@H](O)[C@H](C)O1 [Doxorubicin]; conditions: max 1 µM
Method in brief: as §1

AZD5153 = compound: COc1nnc2ccc(N3CCC(c4ccc(OCCN5CCN(C)C(=O)[C@H]5C)cc4)CC3)nn12 [AZD5153]; conditions: max 1 µM
Method in brief: as §1

Lapatinib = compound: CS(=O)(=O)CCNCc1ccc(-c2ccc3ncnc(Nc4ccc(OCc5cccc(F)c5)c(Cl)c4)c3c2)o1 [Lapatinib]; conditions: max 10 µM
Method in brief: as §1

AZD8186 = compound: C[C@@H](Nc1cc(F)cc(F)c1)c1cc(C(=O)N(C)C)cc2c(=O)cc(N3CCOCC3)oc12 [AZD8186]; conditions: max 10 µM
Method in brief: as §1

Crizotinib = compound: C[C@@H](Oc1cc(-c2cnn(C3CCNCC3)c2)cnc1N)c1c(Cl)ccc(F)c1Cl [Crizotinib]; conditions: max 10 µM
Method in brief: as §1

Savolitinib = compound: C[C@@H](c1ccc2nccn2c1)n1nnc2ncc(-c3cnn(C)c3)nc21 [Savolitinib]; conditions: max 1 µM
Method in brief: as §1

AZD6738 = compound: C[C@@H]1COCCN1C2=NC(=NC(=C2)C3(CC3)[S@](=N)(=O)C)C4=C5C=CNC5=NC=C4 [AZD6738]; conditions: max 10 µM
Method in brief: as §1

AZD5991 = compound: Cc1c2c(nn1C)CSCc1cc(n(C)n1)CSc1cc(c3ccccc3c1)OCCCc1c(C(=O)O)n(C)c3c-2c(Cl)ccc13 [AZD5991]; conditions: max 1 µM
Method in brief: as §1

AZD7648 = compound: Cc1cc2ncnn2cc1Nc1ncc2c(n1)n(C1CCOCC1)c(=O)n2C [AZD7648]; conditions: max 10 µM
Method in brief: as §1

Taselisib = compound: Cc1nc(-c2cn3c(n2)-c2ccc(-c4cnn(C(C)(C)C(N)=O)c4)cc2OCC3)n(C(C)C)n1 [Taselisib]; conditions: max 10 µM
Method in brief: as §1

Selumetinib = compound: Cn1cnc2c(F)c(Nc3ccc(Br)cc3Cl)c(C(=O)NOCCO)cc21 [Selumetinib]; conditions: max 10 µM
Method in brief: as §1

SRA737 = compound: N#Cc1cnc(Nc2cc(NC[C@H]3CNCCO3)c(C(F)(F)F)cn2)cn1 [SRA737]; conditions: max 10 µM
Method in brief: as §1

MK-2206 = compound: NC1(c2ccc(-c3nc4ccn5c(=O)[nH]nc5c4cc3-c3ccccc3)cc2)CCC1 [MK-2206]; conditions: max 10 µM
Method in brief: as §1

Gemcitabine = compound: Nc1ccn([C@@H]2O[C@H](CO)[C@@H](O)C2(F)F)c(=O)n1 [Gemcitabine]; conditions: max 0.3 µM
Method in brief: as §1

[1] = compound: O=C(Nc1ccc2[nH]nc(-c3ccncc3)c2c1)[C@@H]1CCN(CC(=O)N2CCN(c3ccc(-c4ncccn4)cc3)CC2)C1; conditions: max 5 µM
Method in brief: as §1

Olaparib = compound: O=C(c1cc(Cc2n[nH]c(=O)c3ccccc23)ccc1F)N1CCN(C(=O)C2CC2)CC1 [Olaparib]; conditions: max 10 µM
Method in brief: as §1

5-Fluorouracil = compound: O=c1[nH]cc(F)c(=O)[nH]1 [5-Fluorouracil]; conditions: max 20 µM
Method in brief: as §1

| Cell Line | IC50, cell viability 72 h (Carboplatin) [nM] | IC50, cell viability 72 h (AZD5363) [nM] | IC50, cell viability 72 h (AZD1775) [nM] | IC50, cell viability 72 h (Trametinib) [nM] | IC50, cell viability 72 h (Paclitaxel) [nM] | IC50, cell viability 72 h (Palbociclib) [nM] | IC50, cell viability 72 h (AZD1390) [nM] | IC50, cell viability 72 h (Venetoclax) [nM] | IC50, cell viability 72 h (Dasatinib) [nM] | IC50, cell viability 72 h (SG3199) [nM] | IC50, cell viability 72 h (AZD2811) [nM] | IC50, cell viability 72 h (SN-38) [nM] | IC50, cell viability 72 h (AZD0156) [nM] | IC50, cell viability 72 h (AZD4320) [nM] | IC50, cell viability 72 h (Alisertib) [nM] | IC50, cell viability 72 h (Etoposide) [nM] | IC50, cell viability 72 h (Gefitinib) [nM] | IC50, cell viability 72 h (Prexasertib) [nM] | IC50, cell viability 72 h (Doxorubicin) [nM] | IC50, cell viability 72 h (AZD5153) [nM] | IC50, cell viability 72 h (Lapatinib) [nM] | IC50, cell viability 72 h (AZD8186) [nM] | IC50, cell viability 72 h (Crizotinib) [nM] | IC50, cell viability 72 h (Savolitinib) [nM] | IC50, cell viability 72 h (AZD6738) [nM] | IC50, cell viability 72 h (AZD5991) [nM] | IC50, cell viability 72 h (AZD7648) [nM] | IC50, cell viability 72 h (Taselisib) [nM] | IC50, cell viability 72 h (Selumetinib) [nM] | IC50, cell viability 72 h (SRA737) [nM] | IC50, cell viability 72 h (MK-2206) [nM] | IC50, cell viability 72 h (Gemcitabine) [nM] | IC50, cell viability 72 h [1] [nM] | IC50, cell viability 72 h (Olaparib) [nM] | IC50, cell viability 72 h (5-Fluorouracil) [nM] |
| --- | --- | --- | --- | --- | --- | --- | --- | --- | --- | --- | --- | --- | --- | --- | --- | --- | --- | --- | --- | --- | --- | --- | --- | --- | --- | --- | --- | --- | --- | --- | --- | --- | --- | --- | --- |
| MKN45 (Gastric Carcinoma) | > 10000 | > 10000 | 497 | 59.9 | 43.5 | 9410 | > 300 | > 1000 | > 2000 | > 1 | > 1000 | 32.9 | > 3000 | > 1000 | > 10000 | > 10000 | > 10000 | 19.7 | 544 | 719 | > 10000 | > 10000 | 82.7 | 13.1 | 2730 | > 1000 | > 10000 | 6450 | 5840 | 3610 | 5470 | 53.6 | 821 | > 10000 | > 20000 |
| COLO-680N (Esophageal Squamous Cell Carcinoma) | > 10000 | > 10000 | > 3000 | > 1000 | 1300 | > 10000 | > 300 | > 1000 | > 2000 | > 1 | > 1000 | > 300 | > 3000 | > 1000 | > 10000 | > 10000 | > 10000 | > 1000 | > 1000 | > 1000 | > 10000 | > 10000 | > 10000 | > 1000 | > 10000 | > 1000 | > 10000 | > 10000 | > 10000 | > 10000 | > 10000 | > 300 | > 5000 | > 10000 | > 20000 |
| RKN (Other Solid Carcinomas) | > 10000 | > 10000 | 2300 | > 1000 | 40.8 | > 10000 | > 300 | > 1000 | 1740 | > 1 | > 1000 | > 300 | > 3000 | > 1000 | > 10000 | > 10000 | > 10000 | 267 | > 1000 | > 1000 | > 10000 | > 10000 | > 10000 | > 1000 | > 10000 | > 1000 | > 10000 | > 10000 | > 10000 | > 10000 | > 10000 | > 300 | > 5000 | > 10000 | > 20000 |
| RCM-1 (Colorectal Carcinoma) | > 10000 | > 10000 | 1790 | 31.8 | > 3000 | > 10000 | > 300 | > 1000 | > 2000 | > 1 | > 1000 | 35.4 | > 3000 | > 1000 | > 10000 | > 10000 | > 10000 | 23.2 | > 1000 | 506 | > 10000 | > 10000 | > 10000 | > 1000 | 2610 | > 1000 | > 10000 | 9940 | 2570 | > 10000 | > 10000 | > 300 | 2150 | > 10000 | > 20000 |
| SHP-77 (Small Cell Lung Carcinoma) | > 10000 | > 10000 | 1800 | > 1000 | 76.3 | > 10000 | > 300 | > 1000 | > 2000 | > 1 | > 1000 | > 300 | > 3000 | > 1000 | > 10000 | > 10000 | > 10000 | 102 | > 1000 | > 1000 | > 10000 | > 10000 | > 10000 | > 1000 | > 10000 | > 1000 | > 10000 | > 10000 | > 10000 | > 10000 | > 10000 | 169 | > 5000 | > 10000 | 14800 |
